Laboratory results from US9408853B2, “Iridium/rhodium anti-cancer compounds” (University of Warwick, priority 2010, dated 2016).
Read-outs that look alike come from different tables or passages of the source.

Tests used:
[1] = Determination of pKa* of coordinated D2O by 1H NMR pH* titration; format: physicochemical; settings: for pKa (deprotonation of coordinated D2O): calculated from pKa* according to Krezel and Bal (pKa=0.929pKa*+0.42); for pKa* (deprotonation of coordinated D2O): in D2O
Experimental: pH* Measurement. pH* values (pH meter reading without correction for effects of D on glass electrode) of NMR samples in D2O were measured at ca. 298 K directly in the NMR tube, before and after recording NMR spectra, using a Corning 240 pH meter equipped with a micro combination electrode calibrated with Aldrich buffer solutions of pH 4, 7 and 10. For determination of the pKa* value of aquated complexes, complexes were dissolved in D2O and 0.98 mol equiv of AgNO3 was added. The solution was stirred for 24 h at 298 K, and AgCl was removed by filtration.
Determination of pKa* Values. […] The chemical shifts of the chelating ligands or/and methyl group of Cp* protons were plotted against pH*. The pH* titration curves were fitted to the Henderson-Hasselbalch equation, with the assumption that the observed chemical shifts are weighted averages according to the populations of the protonated and deprotonated species.
The changes in the ^1H NMR chemical shifts for the protons of the coordinated chelating ligands in compounds ZL25A, ZL54A, ZL38A, chelating ligands and methyl group in Cp* or Cp^xph in compounds ZL04A, ZL07A, ZL37A, ZL03A, and methyl group in Cp* in compound ZL01A were followed with change in pH* over a range of 2-11. The mean pKa* value was taken for each complex.
When the pH* values of the solutions were increased from about 2 to 11, the NMR peaks assigned to ZL01A, ZL03A, ZL04A, ZL07A, ZL25A, ZL37A, ZL38A and ZL54A gradually shifted to high field in the spectrum.
When the pH* values of the solutions were increased from about 2 to 10, the NMR peaks assigned to aqua complexes ZL47A, ZL49A, ZL69A and ZL74A gradually shifted to high field in the spectrum. The resulting pH titration curves were fitted to the modified Henderson-Hasselbalch equation, from which the pKa* values of the coordinated water were determined.

9-ethylguanine (9-EtG) = experiment: Interactions with nucleobases: 9-EtG adduct formation (1H NMR); format: binding; settings: 1 mM, 1 mol equiv 9-EtG (ZL33A: 2 mol equiv), D2O, 310 K
Experimental: (§1) Interactions with Nucleobases. The reaction of ZL01, ZL03, ZL04, ZL07, ZL25, ZL33, ZL37, ZL38, ZL43 and ZL54 and ZL33A with nucleobases typically involved addition of a solution containing 1-2 mol equiv of nucleobase in D2O, to an equilibrium solution of ZL01, ZL03, ZL04, ZL07, ZL25, ZL33, ZL37, ZL38, ZL43, ZL54 and ZL33A in a solution of 5% MeOD-d4/95% D2O (v/v). ^1H NMR spectra of these solutions were recorded at 310 K after various time intervals.
(§2) Since DNA is a potential target site for transition metal anticancer complexes,^18 nucleobase binding reactions of compounds ZL01, ZL03, ZL04, ZL07, ZL25, ZL33, ZL33A, ZL37, ZL38, ZL43 and ZL54 with nucleobase models 9-ethylguanine (9-EtG) and 9-ethyladenine (9-EtA), were investigated. Solutions of ZL01, ZL03, ZL04, ZL07, ZL25, ZL33, ZL37, ZL38, ZL43 and ZL54 (1 mM) (containing an equilibrium mixture of these complexes and their respective aqua adducts) with 1 mol equivalent of 9-EtG or 9-EtA in D2O were prepared, and ^1H NMR spectra were recorded at different time intervals.
Interactions with Nucleobases. Since DNA is a potential target site for transition metal anticancer complexes,^23 the binding of 9-ethylguanine (9-EtG) to complexes ZL47, ZL49, ZL69, ZL74 and ZL107 was studied.

[2] = tested on: human ovarian A2780 cancer cells; experiment: Cancer cell cytotoxicity, SRB assay; format: cell-based
Experimental: Cancer Cell Cytotoxicity. After plating, human ovarian A2780 cancer cells were treated with Ir^III complexes on day 3 at concentrations ranging from 0.5 μM to 100 μM. Solutions of the Ir^III complexes were made up in 0.125% DMSO to assist dissolution. Stock solutions of the IrIII complexes were firstly prepared in DMSO to assist dissolution, and then diluted into 0.9% saline and medium. After plating 5000 A2780 cells per well on day 1, IrIII complexes were added to the cancer cells on day 3 at concentrations ranging from 0.05 μM to 100 μM. Cells were exposed to the complexes for 24 h, washed, supplied with fresh medium, allowed to grow for three doubling times (72 h), and then the protein content measured (proportional to cell survival) using the sulforhodamine B (SRB) assay.^15 […]. The standard errors are based on two independent experiments of three replicates each.

9-ethyladenine (9-EtA) = experiment: Interactions with nucleobases: 9-EtA adduct formation (1H NMR); format: binding; settings: 1 mM, 1 mol equiv 9-EtA, D2O, 310 K
Experimental: as §1, §2

[3] = 24 h exposure, 72 h recovery, SRB, read-out: A2780 IC50
[4] = screening test, read-out: A2780 IC50, data from screening test

Compound	pKa (deprotonation of coordinated D2O) [1]	pKa* (deprotonation of coordinated D2O) [1]	IC50 [2, 3] [µM]	further results
[(η^5-C5Me4C6H5)Ir(bipy)OD2]^2+ [ZL37A]	6.28	6.31	–	–
[(η^5-C5Me5)Ir(pico)OD2]^+ [ZL03A]	7.99	8.15	–	–
[(η^5-C5Me4C6H5)Ir(phen)(H2O)]^2+ [ZL33A]	–	–	6.7	Reaction with 9-EtG, extent of adduct formation (9-ethylguanine (9-EtG); 10 min): 65%; Reaction with 9-EtG, extent of adduct formation (9-ethylguanine (9-EtG); 24 h): 73%; Reaction with 9-EtA, extent of adduct formation (9-ethyladenine (9-EtA); 10 min): 0%; Reaction with 9-EtA, extent of adduct formation (9-ethyladenine (9-EtA); 24 h): 0%
Cc1c(C)c(C)[c-](C)c1C.[2H]O[2H].[Ir+3].c1cnc2c(c1)ccc1cccnc12 [ZL07A, [(η^5-C5Me5)Ir(phen)OD2]^2+]	7.74	7.88	–	–
Cc1c(C)c(C)[c-](C)c1C.[2H]O[2H].[Ir+3].c1ccc(-c2ccccn2)nc1 [ZL04A, [(η^5-C5Me5)Ir(bipy)OD2]^2+]	6.86	6.94	–	–
[(η^5-C5Me4C6H4C6H5)Ir(bipy)OD2]^2+ [ZL25A]	6.63	6.68	–	–
[(η^5-C5Me5)Ir(tpy)(D2O)]^+ [ZL69A]	8.87	9.10	–	–
[(η^5-C5Me4C6H4C6H5)Ir(2-phpy)(D2O)]^+ [ZL49A]	8.31	8.50	–	–
Cc1c(C)c(C)[c-](C)c1C.[Cl-].[Ir+3].[O-]c1cccnc1-c1ncccc1O [ZL44, [(η^5-C5Me5)Ir(bipy(OH)O)Cl]]	–	–	17.2	cytotoxic activity towards A2780 (in words) [2]: moderate or high activity
Cc1c(C)c(C)[c-](C)c1C.O=C([O-])c1ccccn1.[Cl-].[Ir+3] [ZL03, [(η^5-C5Me5)Ir(η^2—C5H4N-2-CO2)Cl]]	–	–	> 100	Reaction with 9-EtG, extent of adduct formation (9-ethylguanine (9-EtG); 10 min): 100%; Reaction with 9-EtG, extent of adduct formation (9-ethylguanine (9-EtG); 24 h): 100%; Reaction with 9-EtA, extent of adduct formation (9-ethyladenine (9-EtA); 10 min): 80.8%; Reaction with 9-EtA, extent of adduct formation (9-ethyladenine (9-EtA); 24 h): 80.7%
CCC[c-]1c(C)c(C)c(C)c1C.[Cl-].[Ir+3].[c-]1ccccc1-c1ccccn1 [ZL100, [(η^5-C5Me4C3H7)Ir(2-phpy)Cl]]	–	–	–	IC50 [2, 4]: < 10 µM
Cc1c(C)c(C)[c-](-c2ccc(-c3ccccc3)cc2)c1C.Cc1ccnc(-c2cc(C)ccn2)c1.F[P-](F)(F)(F)(F)F.[Cl-].[Ir+3] [ZL59, [(η^5-C5Me4C6H4C6H5)Ir(bipy(Me)2)Cl]PF6]	–	–	0.51	–
Cc1c(C)c(C)[c-](C)c1C.NCCN.[2H]O[2H].[Ir+3] [ZL01A, [(η^5-C5Me5)IrCl(en)OD2]^2+]	7.54	7.66	–	–
Cc1c(C)c(C)[c-](C)c1C.[Cl-].[Ir+3].[c-]1ccccc1C=Nc1ccccc1 [ZL51, [(η^5-C5Me5)Ir{C6H4-2-C(H)═NPh-κC,N}Cl]]	–	–	5	cytotoxic activity towards A2780 (in words) [2]: moderate or high activity
CN(C)c1ccc(N=Nc2ccccn2)cc1.Cc1c(C)c(C)[c-](C)c1C.F[P-](F)(F)(F)(F)F.[Cl-].[Ir+3] [ZL64, [(η^5-C5Me5)Ir(azpy-NMe2)Cl]PF6]	–	–	–	IC50 [2, 4]: < 30 µM
Cc1c(C)c(C)[c-](-c2ccc(-c3ccccc3)cc2)c1C.[Cl-].[Cl][Ir+2].c1cnc2c(c1)c1nccnc1c1cccnc12 [ZL94, [(η^5-C6Me4C6H4C6H5)Ir(dpq)Cl]Cl]	–	–	–	IC50 [2, 4]: < 5 µM
Cc1c(C)c(C)[c-](-c2ccccc2)c1C.F[P-](F)(F)(F)(F)F.Oc1cccnc1-c1ncccc1O.[Cl-].[Ir+3] [ZL45, [(η^5-C5Me4C6H5)Ir(bipy(OH)2)Cl]PF6]	–	–	7.2	–

Compound	pKa (deprotonation of coordinated D2O) [1]	pKa* (deprotonation of coordinated D2O) [1]	IC50 [2, 3] [µM]	further results
Cc1c(C)c(C)[c-](-c2ccccc2)c1C.Cc1ccnc(-c2cc(C)ccn2)c1.F[P-](F)(F)(F)(F)F.[Cl-].[Ir+3] [ZL57, [(η^5-C5Me4C6H5)Ir(bipy(Me)2)Cl]PF6]	–	–	9.2	–
[(η^5-C5Me5)Ir(2-dfphpy)(D2O)]^+ [ZL74A]	8.32	8.51	–	–
CC(=O)C=C(C)[O-].Cc1c(C)c(C)[c-](C)c1C.[Cl-].[Ir+3] [ZL02, [(η^5-C5Me5)Ir(acac)Cl]]	–	–	> 100	–
Cc1c(C)c(C)[c-](C)c1C.F[P-](F)(F)(F)(F)F.NCCN.[Cl-].[Ir+3] [ZL01, [(η^5-C5Me5)IrCl(H2NCH2CH2NH2—N,N)]PF6]	–	–	> 100	Reaction with 9-EtG, extent of adduct formation (9-ethylguanine (9-EtG); 10 min): 100%; Reaction with 9-EtG, extent of adduct formation (9-ethylguanine (9-EtG); 24 h): 100%; Reaction with 9-EtA, extent of adduct formation (9-ethyladenine (9-EtA); 10 min): 0%; Reaction with 9-EtA, extent of adduct formation (9-ethyladenine (9-EtA); 24 h): 0%
[(η^5-C5Me5)Ir(2-phpy)(D2O)]^+ [ZL47A]	8.75	8.97	–	–
Cc1c(C)c(-c2ccc(-c3ccccc3)cc2)[c-](C)c1C.F[P-](F)(F)(F)(F)F.[Ir+3].[c-]1ccccc1-c1ccccn1.c1ccncc1 (centres unmarked) [ZL105, [(η^5-C5Me4C6H4C6H5)Ir(2-phpy)(py)]PF6]	–	–	0.12 ± 0.02	–
[(η^5-C5Me4C6H4C6H5)Ir(phen)OD2]^2+ [ZL54A]	7.38	7.50	–	–
Cc1c(C)c(C)[c-](-c2ccc(-c3ccccc3)cc2)c1C.[Cl-].[Cl][Ir+2].c1ccc2nc3c4cccnc4c4ncccc4c3nc2c1 [ZL95, [(η^5-C5Me4C6H4C6H5Pr(dppz)Cl]Cl]	–	–	–	IC50 [2, 4]: < 5 µM
Cc1c(C)c(C)[c-](-c2ccccc2)c1C.F[P-](F)(F)(F)(F)F.[Cl][Ir+2]1[N]2C=CC=c3c2c2c(c4nccnc34)=CC=C[N]21 [ZL89, [(η^5-C5Me4C6H5)Ir(dpq)Cl]PF6]	–	–	–	IC50 [2, 4]: < 5 µM
[(η^5-C5Me4C6H5)Ir(pico)OD2]^+ [ZL38A]	7.62	7.75	–	–
Cc1c(C)c(-c2ccc(-c3ccccc3)cc2)[c-](C)c1C.Fc1c[c-]c(-c2ccccn2)c(F)c1.[Cl-].[Ir+3] (centres unmarked) [ZL103, [(η^5-C5Me4C6H4C6H5)Ir(2-dfphpy)Cl]]	–	–	0.67 ± 0.11	–
Cc1c(C)c(C)[c-](-c2ccccc2)c1C.[Cl-].[Cl][Ir+2].c1ccc2nc3c4cccnc4c4ncccc4c3nc2c1 [ZL93, [(η^5-C5Me4C6H5)Ir(dppz)Cl]Cl]	–	–	–	IC50 [2, 4]: < 5 µM
Cc1c(C)c(-c2ccccc2)[c-](C)c1C.NCCN.[Cl-].[Ir+3].c1ccc([B-](c2ccccc2)(c2ccccc2)c2ccccc2)cc1 [ZL31, [(η^5-C5Me4C6H5)IrCl(H2NCH2CH2NH2—N,N)]BPh4]	–	–	17	–
Cc1c(C)c(C)[c-](-c2ccc(-c3ccccc3)cc2)c1C.[Cl-].[Ir+3].[O-]c1cccnc1-c1ncccc1O [ZL46, {(η^5-C5Me4C6H4C6H5)Ir[bipy(OH)(O)]Cl}]	–	–	2.8	–
CN(C)c1ccc(N=Nc2ccccn2)cc1.Cc1c(C)c(-c2ccccc2)[c-](C)c1C.F[P-](F)(F)(F)(F)F.[Cl-].[Ir+3] [ZL109, [(η^5-C5Me4C6H5)Ir(azpy-NMe2)Cl]PF6]	–	–	–	IC50 [2, 4]: < 10 µM
Cc1c(C)c(C)[c-](C)c1C.Cc1ccnc(-c2cc(C)ccn2)c1.F[P-](F)(F)(F)(F)F.[Cl-].[Ir+3] [ZL55, [(η^5-C5Me5)Ir(bipy(Me)2)Cl]PF6]	–	–	> 100	–
